Key:
[1] = aloin in the extract composition; cited from earlier work
HaCaT cells = assay: Cytotoxicity estimation of the components on skin keratinocytes (MTT); type: cell-based; conditions: 24 hours
From the text: The study method is based on the definition of the amount of Type 3 aquaporins in epidermal keratinocytes after adding the components of the composition into HaCaT cell culture medium. At the first stage, cytotoxicity of the components is estimated depending on the concentration of components in the composition, be determining the number of survived cells according to MTT concentration with a color dilution method. Cells of HaCaT line were used in the amount of 10 000 cells per well in a 96-well plate. The testing facilities were as follows: humidified atmosphere with 5% CO2 at 37° C. Incubation time equaled 24 hours. For the negative control, purified water without any components of the composition was used. The number of survived cells was registered with MTT at 570 nm. The number of biological replicates was 3.

Type 3 aquaporins (AQP3) = assay: Amount of Type 3 aquaporins in skin keratinocytes (HaCaT, sandwich ELISA); type: cell-based; conditions: Table 7 experiment, 24 hours, Aloe extract 0.01%, trimethylglycine 1%, combination 0.01% + 1% equivalent to active ingredients, Hydagen Aquaporin 1% for the raw material
From the text: At the second stage, the definition of the amount of Type 3 aquaporins in keratinocytes after cultivation under the standard conditions, using the maximum non-toxic concentration of the component from the previous text. To determine the amount of AQP3, a commercially available test with the use of sandwich-type enzyme-linked immunoassay was used. Cells of HaCaT line with the density of 10^5 cells per well were introduced to the 96-well plate. On the next day, the cell medium was removed and replaced with DMEM+5% FBS 50 μL fresh cell medium to maintain cell growth. Next, 50 μL of samples of the composition under the invention was added, and cultivation was performed for 24 hours. In all the tests, 0.20% sodium chloride was added to the cell medium to regulate osmotic balance and to create physiological conditions to cultivate skin cells. The cultivating environment conditions were as follows: humidified atmosphere with 5% CO2 at 37° C. After incubation, cell supernatant was collected, and the amount of Type 3 aquaporins in skin keratinocytes was determined with ELISA method. […] Only after binding the 3 components of the reagent with AQP3 a stable color could be achieved, which was fixed with sulphuric acid and spectropotometrically detected at 450±10 nm wave length. […]

skin = conditions: 2% in body cleansers, 12 hours after the contact with the product; cited from earlier work

## O=C1c2c(O)cccc2C([C@@H]2O[C@H](CO)[C@@H](O)[C@H](O)[C@H]2O)c2cc(CO)cc(O)c21 (stereo partly drawn) [Aloin]
[1]
  UV radiation neutralized when applied on skin surface: up to 30%

## C[N+](C)(C)CC(=O)[O-] [Trimethylglycine, trimethylglycine]
HaCaT cells; 0.03% (weight %) in medium
  Vitality of cells, % when adding the components of the composition into the cultural medium: 98.8 ± 3.47%
HaCaT cells; 0.10% (weight %) in medium
  Vitality of cells, % when adding the components of the composition into the cultural medium: 99.9 ± 1.47%
HaCaT cells; 0.25% (weight %) in medium
  Vitality of cells, % when adding the components of the composition into the cultural medium: 95.4 ± 2.94%
HaCaT cells; 1.00% (weight %) in medium
  Vitality of cells, % when adding the components of the composition into the cultural medium: 93.5 ± 1.66%
HaCaT cells; 10.00% (weight %) in medium
  Vitality of cells, % when adding the components of the composition into the cultural medium: 90.3 ± 6.82%
Type 3 aquaporins (AQP3)
  Increase of AQP3 amount in relation to the negative control, %: +17.92%
Type 3 aquaporins (AQP3); negative control 5.58 ± 0.24
  Amount of AQP3: 6.58 ± 1.08 ng/mL

## CCCCCCCCCCCCOS(=O)(=O)[O-].[Na+] [sodium lauryl sulfate]
skin
  Transepidermal water loss: 68.9 g/m^2/h

From patent US20260216055A1, “PLANT-MINERAL COMPOSITION FOR PH-DEPENDENT REGULATION OF TYPE 3 AQUAPORINS BASED ON ALOE BARBADENSIS” (SKYLAB AG, priority 2022, published 2026)
